# Data from patent US20070082910A1, “Specific nad(p)h oxidase inhibitor” (Mitsubishi Pharma Corporation, priority 2003, published 2007).
# Key:
# NAD(P)H oxidase = assay: IL-8 production inhibitory effect in HUVEC cultured with 44 mM glucose; format: cell-based, human; conditions: for IC50: from dose-effect line by least squares; for inhibitory rate (%) of IL-8 production: 8 days
# Experimental: NAD(P)HOxidase Inhibitory Effect (Method)
# 44 mM glucose was added to Human Umbilical Vein Endothelial Cells (Bio Whittaker, hereinafter to be indicated as “HUVEC”), and cells were cultured for 8 days. Then, a lysis buffer containing a surfactant, Triton-X Nonidet P-40, was added, and interleukin-8 (hereinafter to be indicated as “IL-8”) in the cell lysate, which had been produced by NAD(P)H oxidase was measured by an enzyme-linked […]. The test compound was added one day before glucose addition.
# The inhibitory rate was calculated from the following formula: inhibitory rate (%)=100−[(A−C)/(B−C)]×100
# wherein A is IL-8 production of a cell cultured in the presence of 44 mM glucose with addition of the test compound, B is IL-8 production of a cell cultured in the presence of 44 mM glucose without addition of the test compound, and C is IL-8 production of a cell cultured in the absence of 44 mM glucose and the test compound. The IC50 value was calculated from the dose-effect line drawn by the least squares method based on the obtained inhibitory rate.
# [1] = test system: NAD(P)H oxidase in diabetic rat aorta; assay: NAD(P)H oxidase activity (superoxide anion production, lucigenin chemiluminescence) in aorta of streptozotocin diabetic rats after oral administration; format: in vivo; conditions: once a day for 3 days
# Experimental: Streptozotocin (40 mg/kg) dissolved in 0.05 M citric acid buffer (pH 4.5) was administered into the tail vein of male Wistar rats (Japan SLC) to prepare diabetic rats. At 1 week to 8 weeks from the intravenous injection of streptozotocin, blood was drawn from the tail vein using a capillary treated with heparin, which was immediately cooled with ice and centrifuged at 3000 rpm, 15 min, 4° C. to give serum. The blood glucose level was measured by enzyme assay using a glucose measurement kit “GLU neo sinotest” (sinotest) and a microplate reader (SPECTRA MAX250, Molecular Devices).
# The NAD(P)H oxidase activity was measured by the following method, which was modified by the method of the David. G. Harrison et al. (J. Clin. Invest. 91, 2546-2551, 1993), at 4 days from the start of the test, with superoxide anion production in aorta as an index.
# To be specific, normal rat or diabetic rat free of the above-mentioned treatment was exsanguinated from the abdominal aorta, their thoracic aorta was removed. The removed thoracic aorta was immersed in Krebs-Hepes buffer and marginal tissues were removed to prepare an about 5 mm ring specimen. This ring specimen was preincubate in Krebs-Hepes buffer at 37° C. for 10 min and transferred to Krebs-Hepes buffer containing 0.25 mM lucigenin (SIGMA). 500 μM NADH (SIGMA) was added and chemiluminescence value (chemiluminescence: unit RLU: relative light units) was measured using a luminometer (MULTI-BIOLUMAT LB9505C, Warrack.Berthold) at 37° C. for 10 min. The total value of chemiluminescence was calculated from the area under the curve (hereinafter to be referred to as “AUC”) drawn by plotting the chemiluminescence value (vertical axis) relative to the measurement time (horizontal axis). The measured total value of chemiluminescence was divided by the wet weight of the vascular ring specimen and standardized to the superoxide anion production per aorta unit weight.
# The inhibitory rate (%) was calculated from the following formula: inhibitory rate (%)=100−[(A−C)/(B−C)]×100
# wherein A was the standardized value of chemiluminescence of diabetic rat administered with the test compound, B was the standardized value of chemiluminescence of diabetic rat without administration of the test compound, and C was the standardized value of chemiluminescence of normal rat without administration of the test compound.
# [2] = test system: NAD(P)H oxidase in normal rat aorta; assay: Effect on normal rat NAD(P)H oxidase (superoxide anion production in aorta after administration); format: in vivo; conditions: 10 mg/kg for 3 days
# Experimental: The test compound (10 mg/kg) was administered to normal male Wistar rats (Japan SLC) for 3 days, and the production amount of superoxide anion in the aorta was measured in the same manner as in Experimental Example 2.
# The inhibitory rate (%) was calculated by the following formula: inhibitory rate (%)=100−(A/B)×100 wherein A is the standardized chemiluminescence value of the rats administered with the test compound, and B is the standardized chemiluminescence value of the rats without administration of the test compound (control group).
# leukocyte NADPH oxidase = assay: Effect on leukocyte NADPH oxidase (PMA-stimulated lucigenin chemiluminescence); format: cell-based, rat; conditions: for inhibitory rate (%), leukocyte NADPH oxidase: PMA-stimulated rat leukocytes, mean ± standard error; for inhibitory effect on leukocyte NADPH oxidase: result in words
# Experimental: Blood was drawn from the abdominal aorta of normal male Wister rats (Japan SLC) and immediately mixed with an ice-cold lysis buffer at 42 mL of the buffer per 3 mL of the blood.
# After 5 min, the mixture was centrifuged at 4° C., 1100 rpm for 5 min. The precipitate was suspended in an ice-cold Lysis buffer, and centrifuged again at 4° C., 1100 rpm for 5 min. This operation was repeated 3 times to obtain leukocytes. The obtained leukocytes were suspended in Krebs-Hepes buffer and the number of the cells was adjusted to 1×10^6/ml. 0.25 mM Lucigenin and the test agent were added, Phorbol 12-myristate 13-acetate (hereinafter to be indicated as “PMA”, SIGMA) was further added, and the chemiluminescence value was measured at 37° C. for 10 min.
# The inhibitory rate (%) was calculated by the following formula: inhibitory rate (%)=100−[(A−C)/(B−C))×[…] wherein A is the total chemiluminescence value of the leukocyte suspension with the addition of the test compound, B is the total chemiluminescence value of the leukocyte suspension (control) without addition of the test compound, and C is the total chemiluminescence value of the leukocyte suspension without stimulation with PMA.
# [3] = test system: cerebral infarction model; assay: Cerebral infarction model (ischemic brain disorder model), ligation of both common carotid arteries; format: in vivo, mouse
# Experimental: Male ICR mice (Japan SLC) were anesthetized with ether and fixed in the dorsal position. The both common carotid arteries were ligated using a thread. The wound was closed, and the mice were released in a cage. The death of the mouse was confirmed every 30 min up to 240 min, and cumulative mortality rate of each group was determined. Compound B was orally administered 1 hr before common carotid artery ligation.
# [4] = test system: NAD(P)H oxidase in diabetic rat aorta; assay: Aorta NAD(P)H oxidase inhibitory effect, test compound added to aorta ring specimen in vitro; format: biochemical
# Experimental: This ring specimen was preincubated in Krebs-Hepes buffer containing the test compound (compound A, compound B or DPI (SIGMA)) at 37° C. for 10 min, and then transferred to Krebs-Hepes buffer containing 0.25 mM lucigenin. […] The total value of chemiluminescence was calculated from AUC of the curve drawn by plotting the chemiluminescence value (vertical axis) relative to the measurement time (horizontal axis). The obtained chemiluminescence value was divided by the wet weight of the vascular ring specimen and standardized to the superoxide anion production per aorta unit weight.
# [5] = test compound concentration 0.01 μM
# [6] = test compound concentration 1 μM
# [7] = test compound concentration 0.1 μM
compound,measurement,setting,value
CCOC(=O)c1nn(-c2ccccc2)c2ccccc2c1=O [compound E],IC50,NAD(P)H oxidase,< 10 nM
same,inhibitory rate (%) of IL-8 production,NAD(P)H oxidase; [5],96.3%
same,inhibitory rate (%) of IL-8 production,NAD(P)H oxidase; [6],91.0%
N/C(=N\O)c1nn(-c2ccccc2)c2ccccc2c1=O [compound G],IC50,NAD(P)H oxidase,219 nM
same,inhibitory rate (%) of IL-8 production,NAD(P)H oxidase; [5],39.7%
same,inhibitory rate (%) of IL-8 production,NAD(P)H oxidase; [7],43.9%
same,inhibitory rate (%) of IL-8 production,NAD(P)H oxidase; [6],57.4%
O=C(O)c1nn(-c2ccccc2)c2ccccc2c1=O [compound C],IC50,NAD(P)H oxidase,15.4 nM
same,inhibitory rate (%) of IL-8 production,NAD(P)H oxidase; [5],−2.5%
same,inhibitory rate (%) of IL-8 production,NAD(P)H oxidase; [7],53.7%
same,inhibitory rate (%) of IL-8 production,NAD(P)H oxidase; [6],97.7%
same,"inhibitory rate (%), NAD(P)H oxidase in diabetic rat aorta",[1]; 0.01 mg/kg oral,45%
same,"inhibitory rate (%), NAD(P)H oxidase in diabetic rat aorta",[1]; 0.1 mg/kg oral,90%
C[C@@H](Nc1nnc(-c2ccccc2)c2ccccc12)c1ccccc1 [compound B],IC50,NAD(P)H oxidase,< 10 nM
same,inhibitory rate (%) of IL-8 production,NAD(P)H oxidase; [5],63.8%
same,inhibitory rate (%) of IL-8 production,NAD(P)H oxidase; [7],77.8%
same,inhibitory rate (%) of IL-8 production,NAD(P)H oxidase; [6],72.0%
same,"inhibitory rate (%), NAD(P)H oxidase in diabetic rat aorta",[1]; 10 mg/kg oral,88.5%
same,"inhibitory rate (%), NAD(P)H oxidase in normal rat aorta",[2],−1.3%
same,effect on superoxide anion production in normal rat,[2]; result in words,did not affect the superoxide anion production
same,chemiluminescence (×10^5 RLU/wet weight of aorta),"[2]; normal rat aorta, mean ± standard error",4.01 ± 6.0 ×10^5 RLU/wet weight of aorta
same,"inhibitory rate (%), leukocyte NADPH oxidase",leukocyte NADPH oxidase; 1 μM,11.7 ± 24.2%
same,inhibitory effect on leukocyte NADPH oxidase,leukocyte NADPH oxidase,did not show an inhibitory effect on leukocyte NADPH oxidase
same,number of deaths in interval,"[3]; 1 mg/kg oral 1 hr before ligation, 0-30 min",15
same,number of deaths in interval,"[3]; 1 mg/kg oral, 31-60 min",2
same,number of deaths in interval,"[3]; 1 mg/kg oral, 61-90 min",2
same,number of deaths in interval,"[3]; 1 mg/kg oral, 91-120 min",0
same,number of deaths in interval,"[3]; 1 mg/kg oral, 121-150 min",0
same,number of deaths in interval,"[3]; 1 mg/kg oral, 151-180 min",0
same,number of deaths in interval,"[3]; 1 mg/kg oral, 181-210 min",0
same,number of deaths in interval,"[3]; 1 mg/kg oral, 211-240 min",0
same,cumulative mortality rate,"[3]; 1 mg/kg oral, up to 30 min",78.9%
same,cumulative mortality rate,"[3]; 1 mg/kg oral, up to 60 min",84.2%
same,cumulative mortality rate,"[3]; 1 mg/kg oral, up to 90 min",94.7%
same,number of deaths in interval,"[3]; 3 mg/kg oral 1 hr before ligation, 0-30 min",11
same,number of deaths in interval,"[3]; 3 mg/kg oral, 31-60 min",5
same,number of deaths in interval,"[3]; 3 mg/kg oral, 61-90 min",0
same,number of deaths in interval,"[3]; 3 mg/kg oral, 91-120 min",0
same,number of deaths in interval,"[3]; 3 mg/kg oral, 121-150 min",1
same,number of deaths in interval,"[3]; 3 mg/kg oral, 151-180 min",0
same,number of deaths in interval,"[3]; 3 mg/kg oral, 181-210 min",0
same,number of deaths in interval,"[3]; 3 mg/kg oral, 211-240 min",0
same,cumulative mortality rate,"[3]; 3 mg/kg oral, up to 30 min",57.9%
same,cumulative mortality rate,"[3]; 3 mg/kg oral, up to 60 min",84.2%
same,cumulative mortality rate,"[3]; 3 mg/kg oral, up to 150 min",89.5%
same,number of deaths in interval,"[3]; 10 mg/kg oral 1 hr before ligation, 0-30 min",8
same,number of deaths in interval,"[3]; 10 mg/kg oral, 31-60 min",6
same,number of deaths in interval,"[3]; 10 mg/kg oral, 61-90 min",2
same,number of deaths in interval,"[3]; 10 mg/kg oral, 91-120 min",1
same,number of deaths in interval,"[3]; 10 mg/kg oral, 121-150 min",0
same,number of deaths in interval,"[3]; 10 mg/kg oral, 151-180 min",0
same,number of deaths in interval,"[3]; 10 mg/kg oral, 181-210 min",0
same,number of deaths in interval,"[3]; 10 mg/kg oral, 211-240 min",0
same,cumulative mortality rate,"[3]; 10 mg/kg oral, up to 30 min",40.0%
same,cumulative mortality rate,"[3]; 10 mg/kg oral, up to 60 min",70.0%
same,cumulative mortality rate,"[3]; 10 mg/kg oral, up to 90 min",80.0%
same,cumulative mortality rate,"[3]; 10 mg/kg oral, up to 120 min",85.0%
same,mortality rate improving effect in brain ischemia model,[3]; result in words,a mortality rate improving effect was seen
N#Cc1nn(-c2ccccc2)c2ccccc2c1=O [compound F],IC50,NAD(P)H oxidase,943 nM
same,inhibitory rate (%) of IL-8 production,NAD(P)H oxidase; [5],0%
same,inhibitory rate (%) of IL-8 production,NAD(P)H oxidase; [7],0%
same,inhibitory rate (%) of IL-8 production,NAD(P)H oxidase; [6],54.5%
Cc1cc(C)n(-c2nnc(-c3ccccc3)c3ccccc23)n1 [compound H],IC50,NAD(P)H oxidase,69 nM
same,inhibitory rate (%) of IL-8 production,NAD(P)H oxidase; [5],27.6%
same,inhibitory rate (%) of IL-8 production,NAD(P)H oxidase; [7],49.9%
same,inhibitory rate (%) of IL-8 production,NAD(P)H oxidase; [6],83.0%
"c1ccc2c(c1)[I+]c1ccccc1-2 [DPI, diphenyleneiodonium, reference compound]",inhibitory rate (%),[4]; 200 μM added to aorta ring in vitro,45.1%
same,chemiluminescence (×10^5 RLU/wet weight of aorta),"[4]; 200 μM added to aorta ring in vitro, mean ± standard error",5.2 ± 1.1 ×10^5 RLU/wet weight of aorta
same,NAD(P)H oxidase inhibitory effect on aorta ring in vitro,[4]; result in words,showed an NAD(P)H oxidase inhibitory effect
same,"inhibitory rate (%), leukocyte NADPH oxidase",leukocyte NADPH oxidase; 200 μg/mL,106.7 ± 0.2%
same,inhibitory effect on leukocyte NADPH oxidase,leukocyte NADPH oxidase,showed an inhibitory effect on leukocyte NADPH oxidase
NC(=O)c1nn(-c2ccccc2)c2ccccc2c1=O [compound D],IC50,NAD(P)H oxidase,11.1 nM
same,inhibitory rate (%) of IL-8 production,NAD(P)H oxidase; [5],45.4%
same,inhibitory rate (%) of IL-8 production,NAD(P)H oxidase; [7],98.3%
same,inhibitory rate (%) of IL-8 production,NAD(P)H oxidase; [6],100%
same,"inhibitory rate (%), NAD(P)H oxidase in diabetic rat aorta",[1]; 0.01 mg/kg oral,44%
same,"inhibitory rate (%), NAD(P)H oxidase in diabetic rat aorta",[1]; 0.1 mg/kg oral,72%
